Laboratory results: patent US10562902B2, “IRAK4 inhibitor and use thereof” (BEIJING HANMI PHARMACEUTICAL CO., LTD., priority 2015, dated 2020)
pIC50: −log10 of the molar value.

The molecules below were run against IRAK4 kinase (Homo sapiens (Human), UniProt Q9NWZ3) (assay: IRAK4 kinase activity inhibition assay). Settings: ADP-Glo kinase assay, 10 μM ATP, MBP substrate.
IRAK4 kinase, sequence (Q9NWZ3 whole entry): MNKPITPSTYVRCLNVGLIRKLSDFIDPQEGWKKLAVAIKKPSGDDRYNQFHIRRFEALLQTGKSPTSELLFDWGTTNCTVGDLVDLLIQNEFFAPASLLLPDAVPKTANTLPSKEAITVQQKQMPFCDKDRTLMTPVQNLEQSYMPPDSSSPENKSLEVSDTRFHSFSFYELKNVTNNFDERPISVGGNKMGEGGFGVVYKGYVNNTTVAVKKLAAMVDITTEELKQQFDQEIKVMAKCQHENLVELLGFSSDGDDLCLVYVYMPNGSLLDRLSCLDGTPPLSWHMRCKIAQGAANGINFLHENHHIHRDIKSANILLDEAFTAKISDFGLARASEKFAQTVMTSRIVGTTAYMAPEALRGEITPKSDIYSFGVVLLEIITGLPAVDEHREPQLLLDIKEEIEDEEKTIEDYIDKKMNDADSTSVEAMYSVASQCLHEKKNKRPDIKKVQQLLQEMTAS
Format: biochemical
Procedure: IRAK4 kinase (purchased from Life Technologies, Cat. No.: PR5612U) was diluted to 2 folds of the final concentration (the final concentration is […]) with reaction buffer (40 mM Tris-HC1, pH 7.5; 20 mM MgCl2; 0.1 mg/mL BSA; 1 mM DTT), and added to a 384-well plate at 5 μL/well. The test drugs were 10-fold serial diluted from 10 μM to set six concentration points and added to the test wells of the 384-well plate at 2.5 μL/well. After incubation for 10 min at 25° C., 10 μM of ATP and 0.1 μg/μL of an enzyme reaction substrate, myelin basic protein MBP (purchased from Signal Chem, Cat. No.: M42-51N) were added at 2.5 μL/well, and reacted at 25° C. for 60 minutes. After the reaction was completed, the kinase activity assay was performed using the ADP-Glo™ kinase assay kit (purchased from Promega, Cat. No.: V9102) according to the manufacture's instruction, i.e., 10 μL of ADP-Glo reaction reagent was first added and reacted at 25° C. for 40 minutes, 10 μL of the reaction mixture was taken and mixed with 10 μL of ADP-Glo detection reagent, and reacted at 25° C. for 30 minutes. The kinase activity was then detected, and the IC50 values of the test drugs were calculated.
Molecule `Cc1cc(Nc2nc(N[C@H]3CC[C@H](O)CC3)c3c(ccn3-c3cnn(C)c3)n2)sn1` [Example 1, trans-4-[2-(3-methylisothiazol-5-ylamino)-5-(1-methyl-1H-pyrazol-4-yl)-5H-pyrrolo[3,2-d]pyrimidin-4-ylamino]cyclohexanol] has a pIC50 of no less than 7.00. In the case of `Cc1cc(Nc2nc(NC(C)C)c3c(ccn3-c3cnn(C)c3)n2)sn1` [Example 2], the pIC50 was no less than 7.00. For `Cc1cc(Nc2nc(NCCO)c3c(ccn3-c3cnn(C)c3)n2)sn1` [Example 3], the pIC50 was 6.00 to 7.00. `Cc1cc(Nc2nc(NCCCO)c3c(ccn3-c3cnn(C)c3)n2)sn1` [Example 4] gave a pIC50 of no less than 7.00. `Cc1cc(Nc2nc(NCCCCO)c3c(ccn3-c3cnn(C)c3)n2)sn1` [Example 5] was tested, and the pIC50 was no less than 7.00. `CNC(=O)CCNc1nc(Nc2cc(C)ns2)nc2ccn(-c3cnn(C)c3)c12` [Example 6] was tested, and the pIC50 was 6.00 to 7.00. `CNC(=O)CCCNc1nc(Nc2cc(C)ns2)nc2ccn(-c3cnn(C)c3)c12` [Example 7] gave a pIC50 of 6.00 to 7.00. `CC(=O)NCCNc1nc(Nc2cc(C)ns2)nc2ccn(-c3cnn(C)c3)c12` [Example 8] gave a pIC50 of 6.00 to 7.00. With `CC(=O)NCCCNc1nc(Nc2cc(C)ns2)nc2ccn(-c3cnn(C)c3)c12` [Example 9] the pIC50 was 6.00 to 7.00. `Cc1cc(Nc2nc(NCCN3CCOCC3)c3c(ccn3-c3cnn(C)c3)n2)sn1` [Example 10] was tested, and the pIC50 was 6.00 to 7.00. Work on `Cc1cc(Nc2nc(NCCCN3CCOCC3)c3c(ccn3-c3cnn(C)c3)n2)sn1` [Example 11] yielded a pIC50 of 6.00 to 7.00. Molecule `Cc1cc(Nc2nc(NC3CCC3)c3c(ccn3-c3cnn(C)c3)n2)sn1` [Example 12] has a pIC50 of 6.00 to 7.00. `Cc1cc(Nc2nc(NC3CC(O)C3)c3c(ccn3-c3cnn(C)c3)n2)sn1` (stereo not shown) [Example 13] was tested, and the pIC50 was no less than 7.00. Molecule `Cc1cc(Nc2nc(N[C@H]3C[C@@](C)(O)C3)c3c(ccn3-c3cnn(C)c3)n2)sn1` [Example 14] has a pIC50 of no less than 7.00. In the case of `Cc1cc(Nc2nc(N[C@H]3C[C@@H](N4CCCCC4)C3)c3c(ccn3-c3cnn(C)c3)n2)sn1` [Example 15], the pIC50 was 6.00 to 7.00. Work on `Cc1cc(Nc2nc(N[C@H]3C[C@H](N4CCCCC4)C3)c3c(ccn3-c3cnn(C)c3)n2)sn1` [Example 16] yielded a pIC50 of 6.00 to 7.00. Molecule `Cc1cc(Nc2nc(NC3CCCC3)c3c(ccn3-c3cnn(C)c3)n2)sn1` [Example 17] has a pIC50 of 6.00 to 7.00. In the case of `Cc1cc(Nc2nc(N[C@H]3CC[C@@H](O)C3)c3c(ccn3-c3cnn(C)c3)n2)sn1` [Example 18], the pIC50 was no less than 7.00. `Cc1cc(Nc2nc(N[C@@H]3C[C@H](CO)[C@@H](O)[C@H]3O)c3c(ccn3-c3cnn(C)c3)n2)sn1` [Example 19] gave a pIC50 of no less than 7.00. For `Cc1cc(Nc2nc(N[C@@H]3CCOC3)c3c(ccn3-c3cnn(C)c3)n2)sn1` [Example 20], the pIC50 was 6.00 to 7.00. With `Cc1cc(Nc2nc(N[C@H]3CCOC3)c3c(ccn3-c3cnn(C)c3)n2)sn1` [Example 21] the pIC50 was 6.00 to 7.00. `Cc1cc(Nc2nc(NC3CCCCC3)c3c(ccn3-c3cnn(C)c3)n2)sn1` [Example 22] gave a pIC50 of 6.00 to 7.00. Molecule `Cc1cc(Nc2nc(NC3CCC(=O)CC3)c3c(ccn3-c3cnn(C)c3)n2)sn1` [Example 23] has a pIC50 of 6.00 to 7.00. In the case of `Cc1cc(Nc2nc(N[C@H]3CC[C@](C)(O)CC3)c3c(ccn3-c3cnn(C)c3)n2)sn1` [Example 24], the pIC50 was 6.00 to 7.00. `CO[C@H]1CC[C@@H](Nc2nc(Nc3cc(C)ns3)nc3ccn(-c4cnn(C)c4)c23)CC1` [Example 25] was tested, and the pIC50 was 6.00 to 7.00. `CO[C@H]1CC[C@H](Nc2nc(Nc3cc(C)ns3)nc3ccn(-c4cnn(C)c4)c23)CC1` [Example 26] showed a pIC50 of no less than 7.00. For `CC(=O)N[C@H]1CC[C@H](Nc2nc(Nc3cc(C)ns3)nc3ccn(-c4cnn(C)c4)c23)CC1` [Example 27], the pIC50 was 6.00 to 7.00. `Cc1cc(Nc2nc(N[C@H]3CC[C@H](N4CCCCC4)CC3)c3c(ccn3-c3cnn(C)c3)n2)sn1` [Example 28] gave a pIC50 of 6.00 to 7.00. In the case of `Cc1cc(Nc2nc(NC3CCOCC3)c3c(ccn3-c3cnn(C)c3)n2)sn1` [Example 29], the pIC50 was no less than 7.00. Work on `Cc1cc(Nc2nc(NC3CCN(C)CC3)c3c(ccn3-c3cnn(C)c3)n2)sn1` [Example 30] yielded a pIC50 of 6.00 to 7.00. `CNC(=O)c1ccc(Nc2nc(Nc3cc(C)ns3)nc3ccn(-c4cnn(C)c4)c23)cc1` [Example 31] was tested, and the pIC50 was 6.00 to 7.00. `Cc1cc(Nc2nc(NC(C)C)c3c(ccn3-c3cnn(C4CCOCC4)c3)n2)sn1` [Example 32] was tested, and the pIC50 was 6.00 to 7.00. With `Cc1cc(Nc2nc(N[C@H]3CC[C@H](O)CC3)c3c(ccn3-c3ccccc3)n2)sn1` [Example 33] the pIC50 was 6.00 to 7.00. `Cc1cc(Nc2nc(N[C@H]3CC[C@H](O)CC3)c3c(ccn3-c3ccc(F)cc3)n2)sn1` [Example 34] gave a pIC50 of 6.00 to 7.00. For `Cc1cc(Nc2nc(NC(C)C)c3c(ccn3-c3cccc(C(=O)O)c3)n2)sn1` [Example 35], the pIC50 was 5.00 to 6.00. In the case of `Cc1cc(Nc2nc(NC(C)C)c3c(ccn3-c3cccc(S(C)(=O)=O)c3)n2)sn1` [Example 36], the pIC50 was 5.00 to 6.00. In the case of `Cc1cc(Nc2nc(NC(C)C)c3c(ccn3-c3cccnc3)n2)sn1` [Example 37], the pIC50 was 6.00 to 7.00. In the case of `Cc1cc(Nc2nc(N[C@H]3CC[C@H](O)CC3)c3c(ccn3-c3cccnc3)n2)sn1` [Example 38], the pIC50 was no less than 7.00. `Cc1cc(Nc2nc(NC(C)C)c3c(ccn3-c3ccc(N)nc3)n2)sn1` [Example 39] showed a pIC50 of 5.00 to 6.00. Molecule `Cc1cc(Nc2nc(NC3CCOCC3)c3c(ccn3-c3ccncc3)n2)sn1` [Example 40] has a pIC50 of 6.00 to 7.00. `Cc1cc(Nc2nc(NC(C)C)c3c(ccn3-c3ccnc(O)c3)n2)sn1` [Example 41] showed a pIC50 of 6.00 to 7.00. `COc1cc(-n2ccc3nc(Nc4cc(C)ns4)nc(NC(C)C)c32)ccn1` [Example 42] gave a pIC50 of 6.00 to 7.00. `Cc1cc(Nc2nc(NC(C)C)c3c(ccn3-c3ccc4c(c3)OCO4)n2)sn1` [Example 43] showed a pIC50 of 6.00 to 7.00. `Cc1cc(Nc2nc(NC(C)C)c3c(ccn3-c3cccc4c3cnn4C)n2)sn1` [Example 44] showed a pIC50 of 5.00 to 6.00. `CC(C)Nc1nc(Nc2cnn(C3CCCCC3)c2)nc2ccn(-c3cnn(C)c3)c12` [Example 45, N^2-(1-cyclohexyl-1H-pyrazol-4-yl)-N^4-isopropyl-5-(1-methyl-1H-pyrazol-4-yl)-5H-pyrrolo[3,2-d]pyrimidin-2,4-diamine] gave a pIC50 of 6.00 to 7.00. Molecule `Cn1cc(Nc2nc(N[C@H]3CC[C@H](O)CC3)c3c(ccn3-c3cnn(C)c3)n2)cn1` [Example 46] has a pIC50 of 6.00 to 7.00. Work on `CC(C)Nc1nc(Nc2cnn(C3CCOCC3)c2)nc2ccn(-c3cnn(C)c3)c12` [Example 47] yielded a pIC50 of 6.00 to 7.00. `CCNC(=O)c1csc(Nc2nc(NC3CCOCC3)c3c(ccn3-c3cnn(C)c3)n2)c1` [Example 49] was tested, and the pIC50 was no less than 7.00. Molecule `CN(C)C(=O)c1csc(Nc2nc(NC3CCOCC3)c3c(ccn3-c3cnn(C)c3)n2)c1` [Example 50] has a pIC50 of 6.00 to 7.00. Molecule `CNC(=O)c1cc(Nc2nc(NC3CCOCC3)c3c(ccn3-c3cnn(C)c3)n2)cs1` [Example 51] has a pIC50 of no less than 7.00. Work on `CN(C)C(=O)c1cc(Nc2nc(NC3CCOCC3)c3c(ccn3-c3cnn(C)c3)n2)cs1` [Example 52] yielded a pIC50 of 6.00 to 7.00. With `Cc1cc(Nc2nc(N(C)C3CCOCC3)c3c(ccn3-c3cnn(C)c3)n2)sn1` [Example 53, N^4-methyl-N^2-(3-methylisothiazol-5-yl)-5-(1-methyl-1H-pyrazol-4-yl)-N^4-(tetrahydropyran-4-yl)-5H-pyrrolo[3,2-d]pyrimidine-2,4-diamine] the pIC50 was 6.00 to 7.00. `Cc1cc(Nc2nc(OC(C)C)c3c(ccn3-c3cnn(C)c3)n2)sn1` [Example 54, [4-isopropoxy-5-(1-methyl-1H-pyrazol-4-yl)-5H-pyrrolo[3,2-d]pyrimidin-2-yl]-(3-methylisothiazol-5-yl)amine] showed a pIC50 of no less than 7.00. `COCCOc1nc(Nc2cc(C)ns2)nc2ccn(-c3cnn(C)c3)c12` [Example 55] gave a pIC50 of no less than 7.00. In the case of `COCC(C)Oc1nc(Nc2cc(C)ns2)nc2ccn(-c3cnn(C)c3)c12` (stereo not shown) [Example 56], the pIC50 was 6.00 to 7.00. Molecule `COCCCOc1nc(Nc2cc(C)ns2)nc2ccn(-c3cnn(C)c3)c12` [Example 57] has a pIC50 of 6.00 to 7.00. For `Cc1cc(Nc2nc(OCC3CCOC3)c3c(ccn3-c3cnn(C)c3)n2)sn1` (stereo not shown) [Example 58], the pIC50 was 6.00 to 7.00. With `Cc1cc(Nc2nc(OCc3ccccn3)c3c(ccn3-c3cnn(C)c3)n2)sn1` [Example 59] the pIC50 was 6.00 to 7.00. `Cc1cc(Nc2nc(OC3CCC3)c3c(ccn3-c3cnn(C)c3)n2)sn1` [Example 60] showed a pIC50 of 6.00 to 7.00. Work on `Cc1cc(Nc2nc(OC3COC3)c3c(ccn3-c3cnn(C)c3)n2)sn1` [Example 61] yielded a pIC50 of no less than 7.00. `Cc1cc(Nc2nc(OC3CC(N4CCCCC4)C3)c3c(ccn3-c3cnn(C)c3)n2)sn1` (stereo not shown) [Example 62] showed a pIC50 of no less than 7.00. `Cc1cc(Nc2nc(OC3CCCC3)c3c(ccn3-c3cnn(C)c3)n2)sn1` [Example 63] showed a pIC50 of 6.00 to 7.00. For `Cc1cc(Nc2nc(O[C@@H]3CCOC3)c3c(ccn3-c3cnn(C)c3)n2)sn1` [Example 65], the pIC50 was no less than 7.00. Work on `Cc1cc(Nc2nc(OC3CCCCC3)c3c(ccn3-c3cnn(C)c3)n2)sn1` [Example 66] yielded a pIC50 of no less than 7.00. In the case of `Cc1cc(Nc2nc(OC3CCC(O)CC3)c3c(ccn3-c3cnn(C)c3)n2)sn1` (stereo not shown) [Example 67], the pIC50 was 6.00 to 7.00. `COC1CCC(Oc2nc(Nc3cc(C)ns3)nc3ccn(-c4cnn(C)c4)c23)CC1` (stereo not shown) [Example 68] was tested, and the pIC50 was 6.00 to 7.00. For `Cc1cc(Nc2nc(OC3CCCN(C)C3)c3c(ccn3-c3cnn(C)c3)n2)sn1` (stereo not shown) [Example 69], the pIC50 was 6.00 to 7.00. Molecule `CC(=O)N1CCCC(Oc2nc(Nc3cc(C)ns3)nc3ccn(-c4cnn(C)c4)c23)C1` (stereo not shown) [Example 70] has a pIC50 of 6.00 to 7.00. `Cc1cc(Nc2nc(OC3CCNCC3)c3c(ccn3-c3cnn(C)c3)n2)sn1` [Example 71] gave a pIC50 of 6.00 to 7.00. For `Cc1cc(Nc2nc(OC3CCN(C)CC3)c3c(ccn3-c3cnn(C)c3)n2)sn1` [Example 72], the pIC50 was 6.00 to 7.00.
